Laboratory results: patent publication US20100034901A1, “ANIMAL FEED COMPOSITIONS” (priority 2006, published 2010)
Entries after “also recorded” stand apart in the source; their conditions may differ.

Columns and labels:
turkeys = experiment: Turkey Study 3: growth, lameness scoring, femur breaking force, cartilage indenter test; type: in vivo; settings: for leg weakness scores (mean): 5 point scale, control 3.0; for growth response (bird weight) / growth rates: groups with boron versus groups without boron
Text: 250 turkeys were selected at random at week 11 and divided into 5 treatment groups: 1) control, 2) ascorbate only “(VC”), 3) boron only (“B”), 4), boron and ascorbate (“B+C”), and 5) ½ rate boron and full rate ascorbate (“LoB+C”). Full rates of both boron and ascorbate were as described for study 1. At 17 weeks, all birds were weighed, scored for lameness/mobility/gait abnormality using the five point scale used in study 1, and sacrificed. The femur was dissected from each leg of each bird and subjected to an ultimate breaking force analysis. Cartilage at the femoral distal condyle was subjected to an indenter test.
For the lameness/mobility/gait abnormality scoring, three graders were used. Two of the graders were “blind” graders unaware of each turkey's grouping. The third grader was a “biased” grader aware of each turkey's grouping. Partial grading on the 5 point scale described above was allowed. FIG. 11 presents the cross-tabulation of the graders' results.

Duroc and Yorkshire pigs = experiment: Boron supplementation and OC-associated lameness in swine (Example 1); type: in vivo, pig
Protocol: The basal diet consisted of commercial corn-soy diet containing 10 ppm boron.
Test diet group B was fed a basal diet plus 25 mg/kg boron as sodium borate decahydrate (borax). Test diet group A was fed a basal diet plus 25 mg/kg boron as sodium borate decahydrate (borax) and 250 mg/kg ascorbic acid.
Pigs were weighed at the beginning of the study, 4 weeks later and every 3 weeks until the end of the study. Animals were scored for soundness on a 5-point scale at each weighing. (Five-point scale: 1=no soundness defects; 2=minor soundness issues but still sound enough for retention as breeding animal; 3=not sound enough for retention for breeding but still marketable; 4=unsound, likely to be rejected at slaughter; 5=severely lame, requiring euthanasia for humane reasons.) Grading was done by the caretaker and the investigator at all weighing times. An experienced independent treatment-blind rater also evaluated the soundness of each animal and the ratings he provided were compared with the ratings of the caretaker and investigator by use of Cohen's Kappa test.
The animals were housed in a modern curtain sided barn with deep straw bedding, with ad libitum access to feed and water. Waterers and feeders were on a concrete pad but the remainder of the flooring was deep straw over a ground limestone and sand base. Floor space allowances exceeded the recommendations of the Guide for the Care and Use of Agricultural Animals in Agricultural Research and Teaching, First Revised Edition, 1999. Federation of Animal Science Societies. Savoy, Ill.
The basal diet (no boron supplemented) was analysed and found to contain boron at the rate of 10 ppm which is typical for a corn-soybean meal based diet.
At the end of the study the pigs were transported to a laboratory where they were euthanized and necropsied. Six pigs in each of group B and group A were put on the control diet for 7 days at the end of the study.
At necropsy, samples of liver, heart, kidney, fat, skeletal muscle, proximal tibia, blood, and the rostral snout were retained and frozen at −40° C. prior to chemical analysis. All joints of the axial skeleton were evaluated for the presence of gross lesions of osteochondrosis and graded on a 5 point scale. (5-point scale: 1=no gross abnormalities; 2=minor imperfections in articular conformation or articular reddening present but no cartilage erosions; 3=cartilage intact but surface irregularities of the cartilage are present; 4=fissuring or erosion of articular cartilage is obvious; 5=full thickness cartilage lesions or cartilage flaps, osteochondritis dissecans obviously present).
The proximal femur (femoral head) and articular surfaces and growth plates associated with the stifle, hock, shoulder, elbow and carpus were sectioned with a band saw and approx. 0.5 to 1.0 cm sections fixed in formalin. […]
Mean joint lesion scores, growth rate and soundness scores by treatment and by factors boron and ascorbate were compared using an analysis of variance and t-test as appropriate. Soundness scores were dichotomised into binary categorical variables for lameness (soundness score>2) and for absence of defects (soundness<2), and the binary variables analysed by chi-square and logistic regression.
Tissue specimens stained with H&E were examined microscopically for the presence of lesions of osteochondrosis. […] Each tissue section was scored by a treatment-blind board-certified pathologist. […]

[1] = test system: pigs of about 100 kg body weight; experiment: 3-NPB study in pigs with or without supplemental boron
Protocol: The pigs were evaluated for lameness daily and euthanatized on day 13 and the joints and other organs were examined.

sows and their litters = experiment: Sow and litter trial in a commercial swine operation during a PRRSV outbreak; type: in vivo; settings: sows given 1 mg boron per pound BW per day
Protocol: To test the effect of boron on sows and their litters, a trial was established in a large commercial swine operation during an outbreak of porcine viral reproductive and respiratory disease (PRRSV). Boron was administered orally to a group of 51 sows individually housed in crates at the rate of 1 mg boron per pound BW per day beginning 1 week prior to farrowing and continuing until the piglets were weaned at 14 days of age. […] Boron treatment was supplied as a single daily dosing and was discontinued at weaning. All sows were fed a standard commercial sow diet.

pig cartilage = experiment: Glycosaminoglycan study: sGAG in articular cartilage plugs of hock and elbow joints; type: in vivo; settings: pigs fed 50 ppm boron
Protocol: Hock joints and elbow joints were obtained at necropsy from pigs in two feeding groups: one group having been fed a commercial ration supplemented with 50 mg B/kg feed and the other being fed only the standard commercial pig ration.
Cartilage plugs were harvested from the articular surfaces of 40 hock and elbow joints using a #5 (10.5 mm) cork borer. The samples were papain digested and analyzed for concentration of sulfated glycosaminoglycan (sGAG) using a spectrophotometric microplate analysis procedure adapted from Farndale, et al (1986), using a chondrotin sulfate standard. This method measures total sulfated glycosaminoglycan, most of which is chondrotin sulfate and keratan sulfate components of aggrecan. Aggrecan is the large aggregating proteoglycan of cartilage responsible for creating and maintaining the osmotic pressure of cartilage. Quanititation of sGAG concentration thus provides a measure of the weight-bearing and anti-friction properties of cartilage and is a measure of cartilage quality and durability.

crossbred pigs = experiment: 28-day feeding trial: phosphorus digestibility and excretion, feed conversion; type: in vivo, pig; settings: 50 ppm Added B; 28 days; N 12 pens
Protocol: Pigs were randomly allocated to 24 pens of 6 pigs per pen in a thermoneutral controlled environment barn with steel grid flooring. Each pen was equipped with a single-hole feeder. Water was available free-choice from a nipple drinker. […] Feces were collected on the last 3 days of the study from each pen and a pooled aliquot was dried and submitted for chemical analysis. Yttrium oxide was added to the diet at 0.05% and served as a marker for phosphorus digestibility. Pig growth and feed consumption was measured at the end of the study with the pen as the experimental unit. Data was analyzed for effects of boron and calcium by univariate and multivariate analysis of variance and t-tests.

[2] = test system: sows, piglets and pigs on farms; type: in vivo; settings: sows on 1 mg/kg body weight boron as boric acid; usual mortality for this farm about 5 to 7%
Protocol: Boron was added to the diet of sows at 1 mg/kg body weight as boric acid. […] Among a group of 95 piglets the birth to weaning mortality was 2 piglets. The usual mortality for this farm was about 5 to 7%. These piglets remained on boron 50 ppm plus ascorbate 125 ppm. One pig was euthanized and examined at a weight of about 85 pounds. […] All bones of the appendicular skeleton were sectioned on the band saw.
An Iowa farm treated a group of about 100 pigs with 50 ppm boron as boric acid. None of these pigs developed any signs of lameness or unsoundness. The farmer reported that these pigs are the most sound he has raised. The estimated previous lameness/unsoundness rate was about 25 to 30%, and zero in the test group. […] The absence of lameness and hock swelling was observed. Two pigs with hock swelling were euthanised from among the younger and older pigs not treated with boric acid. […] An older pig of about 250 pounds body weight with severe lameness in the right hock was euthanised.

[3] = boron supplementation 50 ppm, 3-NPB none

Structure (SMILES) | leg weakness scores (mean) (turkeys) | improvement of bone strength as compared with the control (turkeys; boron alone, 3-point bending test of the femur) | effect on femur break force (main effects analysis, FIG. 26) (turkeys; week 11 to 17) | growth response (bird weight) / growth rates (turkeys; week 11 to 17) | growth response (bird weight) / growth rates (turkeys; week 11 to 17, listed as B) | TBlue staining intensity (semi-quantitative measure of sGAG content of cartilage) (Duroc and Yorkshire pigs; boron supplemented group vs unsupplemented pigs) | joint condition vs basal diet with no supplemental boron (FIG. 1) (Duroc and Yorkshire pigs; growing swine supplemented with boron) | Growth plate lesions associated with widening, found in % of tissues (Duroc and Yorkshire pigs; pigs receiving 25 ppm boron, microscopic sections of articular cartilage and growth plate) | Articular cartilage lesions (necrosis, hemorrhage, infarction, or streaks), found in % of tissues (Duroc and Yorkshire pigs; pigs receiving 25 ppm supplemental B, microscopic sections) | occurrence of OC in pigs (Duroc and Yorkshire pigs; supplemental boron at 25 ppm to 50 ppm, FIGS. 1, 3 and 4) | Clinical Lameness Score: Normal (count of pigs) [1, 3] | Clinical Lameness Score: Visible Lameness (count of pigs) [1, 3] | prevalence and severity of osteochondrosis lesions (shoulder, stifle, hock and elbow joints) ([1]; supplemental boron and no 3-NPB) | litter size at birth (sows and their litters) | piglet birth weight (sows and their litters) | sGAG concentration (dry matter basis) in the cartilage (pig cartilage) | Feed Conversion Ratio (feed/gain) (crossbred pigs) | birth to weaning mortality among a group of 95 piglets [2] | bone strength as measured by 3-point bending test (turkeys; administered in drinking water) | cartilage strength by indenter test at the femoral distal condyle (FIG. 27) (turkeys; week 11 to 17)
[B] [Boron] | 2.3 | 7.8% | large effect | improved | significant | consistently higher | healthier joints | 19% | 4% | significant reduction | 5 | 0 | lowest prevalence of lesions and the lowest severity | no effects | no effects | 11050 ng/g | 2.32 |  |  | 
OB(O)O [boric acid] |  |  |  |  |  |  |  |  |  |  |  |  |  |  |  |  |  | 2 piglets |  | 
O=C1O[C@H]([C@@H](O)CO)C(O)=C1O [ascorbate, ascorbic acid, reference compound] | did not significantly improve |  | lesser effect |  |  |  |  |  |  |  |  |  |  |  |  |  |  |  | slightly improved bone strength | statistically significant effect; also recorded: improved cartilage strength
